Results taken from publication PMC10892409, “Exploring Ocimum basilicum’s Secondary Metabolites: Inhibition and Molecular Docking against Rhynchophorus ferrugineus for Optimal Action” (Plants, 2024).
Converted amounts (≈) assume the structure as drawn. “And” between values parts separate entries of the source, which are not always exact repeats. Equal entries are not always repeated.

How the values were obtained:
R. ferrugineus adults = test: Antifeedant/insecticidal test on adults with treated sugarcane stem (probit LC50); type: in vivo, Rhynchophorus ferrugineus; conditions: Rhynchophorus ferrugineus, 24 h, after 1 day of treatment, 95% confidence limits in brackets, read-out: LC50
Protocol: (§1) Over the course of 40 days, an O. basilicum cell suspension was cultivated in this investigation, and then the extract was obtained. […] Long segments of sugarcane stem were employed in the insect breeding lab at King Faisal University’s Research and Training Center to raise adult R. ferrugineus larvae. For this experiment, we used a topical application technique with larvae stored at 4 °C for five minutes to test the extract’s activity. Using a hand-operated micro-applicator (Burkard Manufacturing Co., Ltd., Hertfordshire, UK, collected using a […] micro-syringe), extracts at escalating ratios (10 µL) were injected into the dorsal surface of the larvae (Ito Corp.; MS-N50, Shizuoka, Japan). Five larvae per box in a series of three replicates were fed on sugarcane stem pieces measuring 10 cm in length. The LD50 was calculated by measuring the percentage of dead larvae at 24, 48, 72, and 96 h following a topical application. The antifeedant impact was determined in adults by giving them 10 cm sugarcane stem segments cut in half longitudinally. Long strips of sugarcane stem (32 cm^2) were immersed in the previous serial extract and compound concentration (10 mL) for ten seconds before they were dried in ambient air using a plastic box. Each box included a new pair of larvae (a male and a female). Ten sets of each treatment were performed. Data on how well the subjects ate were evaluated at 24, 48, 72, and 96 h.
(§2) The tissue culture parameters were calculated quantitatively from three independent sets of samples, and the mean SD was used to describe the findings. Toxicity parameters were determined quantitatively using a 10-replicate sample, and means and standard deviations were used to present the data. The median dosage obtained from a dose–response regression was used to calculate the LC50 value. By analyzing the comparative growth rate vs. the crude extract logarithm using least squares regression, the range of LC50 was calculated with 95% confidence. A simple variance study was performed on the increased weight and enzymatic activity data (ANOVA). The distinction between the means was accomplished using the Student–Newman–Keuls (SNK) test. Additionally, SPSS version 25 was used to find p < 0.05 significant deviations from the mean.

[1] = tested on: fourth-instar larvae of R. ferrugineus; test: Topical application (contact) to fourth-instar larvae (probit LD50); type: in vivo, Rhynchophorus ferrugineus; conditions: after 1 day of treatment, 95% confidence limits in brackets
Protocol: as §1, §2

AChE [2] = test: In vitro AChE inhibition, larval homogenate (Ellman); type: biochemical, Rhynchophorus ferrugineus; conditions: fourth-instar larvae preparation
Protocol: (§3) The R. ferrugineus were homogenized larvae in a buffer (sodium phosphate, 40 mM, and pH 7.4); then, sodium chloride (10 mM dissolved in 1% (w/v) triton X-100) was added. During centrifugation (Sigma 3–30 KS), the homogenate was chilled to 4 °C and spun at a speed of 5000 rpm (20 min). The supernatant was either immediately put into action for an enzymatic test or frozen and kept at […] for later use. Each test was repeated three times. The protein content was determined using the same protocol employed by Lowry with modification using protein extract (100 µL) combined with an alkaline copper solution and a Folin–Ciocalteu phenol reagent (2 mL and 200 µL, respectively). The intensity of the resulting blue hue was evaluated during 30 min of incubation at 25 °C. Using an ELISA plate reader and a BSA standard curve, we could calculate the protein concentration by analyzing the absorbance at 600 nm (Multiskan SkyHigh Microplate Spectrophotometer, Thermo Fisher Scientific, Waltham, MA, USA).
(§4) The enzyme AChE was assessed using a substrate of acetylthiocholine iodide and evaluated using 5,5′-dithiobis [2-nitrbenzoic acid] (DTNB), according to [94]. Each well contained a sodium phosphate buffer (140 µL) (pH: 8.0; 100 mM), DTNB (10 µL), extract (20 µL)/components at 1, 10, 50, 100, and 1000 µg/mL in DMSO and underwent 15 min of incubation at 25 °C. Acetylthiocholine (ATCh) was added to start the reaction (10 µL). The ATCh enzymatic hydrolysis produced a 5-thio-2-nitrobenzoate anion as a color (yellow) that was detected by measuring its wavelength, i.e., 412 nm, thereby allowing the researchers to track the rate of ATCh hydrolysis (15 min). Each response was performed three times on a microplate and examined using an ELISA plate reader to determine the 412 nm absorbance of the combination (Multiskan SkyHigh Microplate Spectrophotometer). The AChE-specific activity was measured as OD412/mg protein.h. based on observing the effect of raising the quantities of all of these compounds during the tests on the inhibition results, and the inhibitory concentration (IC50) was calculated. Then, a computer algorithm was used to determine the IC50 values (Version 9.01 of GraphPad Prism by Inc., 2020, San Diego, CA, USA).

ACPs [3] = test: In vitro ACP inhibition, larval homogenate; type: biochemical, Rhynchophorus ferrugineus; conditions: fourth-instar larvae preparation
Protocol: as §3
(§5) Activities of ACPs and ALPs were evaluated using a modified version of the Asakura technique. The ACP test required incubating 100 μL of crude enzyme in a buffer of 650 μL of sodium acetate (pH: 5.0; 50 mM with ACPs) or 250 μL of Tris–HCl (at 50 mM; pH: 8.0 with ALPs) and p-nitrophenyl phosphate (5.5 mM). For 30 min; the various mixes were kept at 37 °C for incubation. Thereafter, 500 μL of NaOH (0.5 N) stopped the reaction. Using an ELISA plate reader, we determined the mixture’s 415 nm absorbance value (Multiskan SkyHigh Microplate Spectrophotometer). The ACP- and ALP-specific activity was estimated as OD 415/mg protein·h.

ALPs [4] = test: In vitro ALP inhibition, larval homogenate; type: biochemical, Rhynchophorus ferrugineus; conditions: for IC50 ALPs in vitro: fourth-instar larvae preparation
Protocol: as §3, §5

AChE [5] = test: In vivo AChE inhibition in treated fourth-instar larvae; set-up: species or system Rhynchophorus ferrugineus; conditions: fourth-instar larvae treated 24 h
Protocol: as §4
(§6) Each enzyme’s in vivo impact was measured after treating larvae with an extract or pure chemicals. An inhibitor-free test combination served as a negative control. We determined the absorbance of the enzymes throughout a spectrum of wavelengths using a rapid reader for ELISA plates (Multiskan SkyHigh Microplate Spectrophotometer). Extracts and pure chemicals were used to treat R. ferrugineus larvae at previous serial concentrations, and their AChE, ACP, ALP, and GABA-T activity was tested in vivo using the methods outlined above. Larvae spent a day on leaf disks treated with chemicals or extract.

ACPs [6] = test: In vivo ACP inhibition in treated fourth-instar larvae; set-up: species or system Rhynchophorus ferrugineus; conditions: fourth-instar larvae treated 24 h
Protocol: as §5, §6

ALPs [7] = test: In vivo ALP inhibition in treated fourth-instar larvae; set-up: species or system Rhynchophorus ferrugineus; conditions: fourth-instar larvae treated 24 h
Protocol: as §5, §6

Question: What does the source list for `COc1ccc(-c2cc(=O)c3c(O)c(OC)c(OC)cc3o2)cc1` [Salvigenin]?
Answer: LC50 (R. ferrugineus adults): 1140 µg/mL (≈ 3480 µM); LD50 [1]: 10.8 (10.2–11.5) µg/Larvae; LD50 ([1]; listed as salvigenin): 10.8 µg/Larvae; IC50 AChE in vitro (AChE [2]): 130 ± 1.23 µg/mL; IC50 AChE in vitro (AChE [2]; listed as salvigenin): 129.7 µg/mL; IC50 ACPs in vitro (ACPs [3]; listed as salvigenin): 151.2 µg/mL (≈ 461 µM); IC50 ALP in vitro (ALPs [4]): 123 µg/mL (≈ 374 µM); IC50 ALPs in vitro (ALPs [4]; listed as salvigenin): < 200 µg/mL; IC50 AChE in vivo (AChE [5]): 258 ± 1.23 µg/mL; IC50 AChE in vivo (AChE [5]; listed as salvigenin): 258.4 µg/mL; IC50 ACPs in vivo (ACPs [6]; listed as salvigenin): < 330 µg/mL and 294.2 µg/mL; IC50 ALPs in vivo (ALPs [7]; listed as salvigenin): 228.7 µg/mL

Question: Which LC50 (R. ferrugineus adults) does the source give for `O=C(/C=C/c1ccc(O)c(O)c1)O/C=C\c1ccc(O)c(O)c1` [Nepetoidin B] here?
Answer: 1270 µg/mL (≈ 4050 µM)

Question: And the LD50 [1]?
Answer: 11.5 (10.9–12.1) µg/Larvae

Question: And the LD50 ([1]; listed as nepetoidin B)?
Answer: 11.5 µg/Larvae

Question: What about the “IC50 AChE in vitro” value (AChE [2]) of the same compound?
Answer: 147 ± 1.38 µg/mL

Question: What about the “IC50 AChE in vitro” value (AChE [2]; listed as nepetoidin B) of the same compound?
Answer: 147.2 µg/mL

Question: And the “IC50 ACPs in vitro” value (ACPs [3]; listed as nepetoidin B)?
Answer: 154.2 µg/mL (≈ 491 µM)

Question: What about the IC50 ALP in vitro (ALPs [4]) of the same compound?
Answer: 166 µg/mL (≈ 529 µM)

Question: And the “IC50 ALPs in vitro” value (ALPs [4]; listed as nepetoidin B)?
Answer: < 200 µg/mL

Question: What about the “IC50 AChE in vivo” value (AChE [5]) of the same compound?
Answer: 282 ± 1.38 µg/mL

Question: What about the “IC50 AChE in vivo” value (AChE [5]; listed as nepetoidin B) of the same compound?
Answer: 281.7 µg/mL

Question: What about the “IC50 ACPs in vivo” value (ACPs [6]; listed as nepetoidin B) of the same compound?
Answer: < 330 µg/mL and 294.3 µg/mL

Question: What about the “IC50 ALPs in vivo” value (ALPs [7]; listed as nepetoidin B) of the same compound?
Answer: 307.9 µg/mL

Question: Which results are given for `O=C(/C=C/c1ccc(O)c(O)c1)O[C@@H](C(=O)O)[C@@H](O)C(=O)O` [Caftaric acid]?
Answer: LC50 (R. ferrugineus adults): 1490 µg/mL (≈ 4780 µM); LD50 [1]: 18.79 (17.82–19.93) µg/Larvae; LD50 ([1]; listed as caftaric acid): 18.79 µg/Larvae; IC50 AChE in vitro (AChE [2]): 156 ± 1.49 µg/mL; IC50 AChE in vitro (AChE [2]; listed as caftaric acid): 156.4 µg/mL; IC50 ALP in vitro (ALPs [4]): 158 µg/mL (≈ 505 µM); IC50 ALPs in vitro (ALPs [4]; listed as caftaric acid): < 200 µg/mL; IC50 AChE in vivo (AChE [5]): 429 ± 1.49 µg/mL; IC50 AChE in vivo (AChE [5]; listed as caftaric acid): 429.2 µg/mL

Question: Chicoric acid was tested. Which LD50 [1] did it give?
Answer: 9.45 (9.07–10.45) µg/Larvae

Question: What about the LD50 ([1]; listed as chicoric acid) of the same compound?
Answer: 9.45 µg/Larvae

Question: And the “IC50 AChE in vitro” value (AChE [2])?
Answer: 108 ± 1.07 µg/mL

Question: What about the “IC50 AChE in vitro” value (AChE [2]; listed as chicoric acid) of the same compound?
Answer: 107.5 µg/mL

Question: And the “IC50 ACPs in vitro” value (ACPs [3]; listed as chicoric acid)?
Answer: 101.7 µg/mL

Question: And the “IC50 ALPs in vitro” value (ALPs [4]; listed as chicoric acid)?
Answer: < 200 µg/mL

Question: What about the “IC50 AChE in vivo” value (AChE [5]) of the same compound?
Answer: 213 ± 1.07 µg/mL

Question: What about the “IC50 AChE in vivo” value (AChE [5]; listed as chicoric acid) of the same compound?
Answer: 211.6 µg/mL

Question: What about the “IC50 ACPs in vivo” value (ACPs [6]; listed as chicoric acid) of the same compound?
Answer: < 330 µg/mL and 204.8 µg/mL

Question: And the “IC50 ALPs in vivo” value (ALPs [7]; listed as chicoric acid)?
Answer: 237.2 µg/mL

Question: Which LC50 (R. ferrugineus adults) does the source give for `O=C(O)C[C@H](C(=O)O)[C@@H](O)C(=O)O` [Isocitric acid] here?
Answer: 1800 µg/mL (≈ 9340 µM)

Question: What about the LD50 [1] of the same compound?
Answer: 22.7 (21.4–23.8) µg/Larvae

Question: What about the LD50 ([1]; listed as isocitric acid) of the same compound?
Answer: 22.7 µg/Larvae

Question: And the “IC50 AChE in vitro” value (AChE [2])?
Answer: 197.3 µg/mL and 197 ± 1.76 µg/mL

Question: What about the “IC50 ACPs in vitro” value (ACPs [3]) of the same compound?
Answer: 192.4 µg/mL (≈ 1000 µM)

Question: And the IC50 ALP in vitro (ALPs [4])?
Answer: 195 µg/mL (≈ 1010 µM)

Question: What about the “IC50 ALPs in vitro” value (ALPs [4]) of the same compound?
Answer: < 200 µg/mL

Question: What about the “IC50 AChE in vivo” value (AChE [5]) of the same compound?
Answer: 494 ± 1.76 µg/mL

Question: What about the “IC50 AChE in vivo” value (AChE [5]; listed as isocitric acid) of the same compound?
Answer: 494.2 µg/mL

Question: And the “IC50 ACPs in vivo” value (ACPs [6]; listed as isocitric acid)?
Answer: 415.6 µg/mL

Question: And the “IC50 ALPs in vivo” value (ALPs [7]; listed as isocitric acid)?
Answer: 448.3 µg/mL
